Data from US12258611B2, “Device for detecting tomato pathogenic fungus and detection method using the same” (Panasonic Intellectual Property Management Co., Ltd., priority 2018, dated 2025).

Experiments:
Assay in all cases: hyphae penetrating the artificial cell wall, fludioxonil in culture solution
Type in all cases: cell-based
[1] = tested on: Passalora fulva; conditions: 25° C., 72 hours
Protocol: Passalora fulva, which is one of tomato pathogens and is a pathogenic fungus that causes tomato leaf mold, was inoculated onto a potato dextrose agar medium. Subsequently, the medium was left static at a temperature of 23° C. for one to two weeks. Passalora fulva was distributed by The Genetic Resources Center, The National Agriculture and Food Research Organization (MAFF No. 726744). Subsequently, to the potato dextrose agar medium having cultured Passalora fulva with sufficient hyphal growth, several milliliters of sterile pure water was dropped, and the surface of the hyphae was rubbed with, for example, a platinum loop or a brush, to obtain a disintegrated hypha-spore mixed suspension.
(§1) The above-described container having, at the bottom surface, the artificial cell wall including the polyethylene terephthalate film (substrate) having, on its back surface, the cellulose membrane was placed on a culture medium container (culture-solution storage), to provide a device for detecting a tomato pathogenic fungus. The culture medium container was a 24-well flat-bottom culture plate (Corning Incorporated, trade name: 24 Well Cell Culture Cluster Flat Bottom). Between the culture medium container and the artificial-cell-wall-formed container, 600 μL of a liquid culture medium (culture solution) was charged so as to be in contact with the back surface of the artificial-cell-wall-formed container. […]
(§2) Subsequently, sterile purified water was added such that the total volume with such a disintegrated hypha-spore mixed suspension became 200 μL. The tomato-pathogenic-fungus selection method device in which the seven species of fungi were added was left to stand at a temperature of 25° C. for 72 hours, and the number of hyphae penetrating the artificial cell wall and observed at the back surface was visually counted using an optical microscope. […]

[2] = tested on: Pseudocercospora fuligena; conditions: 25° C., 72 hours
Protocol: Pseudocercospora fuligena, which is one of tomato pathogens and is a pathogenic fungus that causes tomato Cercospora leaf mold, was inoculated onto a potato dextrose agar medium. Subsequently, the medium was left static at a temperature of 28° C. for a week. Pseudocercospora fuligena was distributed by The Genetic Resources Center, The National Agriculture and Food Research Organization (MAFF No. 306728). Subsequently, hyphae of Pseudocercospora fuligena were transferred from the potato dextrose agar medium to a burdock root powder agar medium, further left static for one to two weeks at a temperature of 28° C.; after hyphae sufficiently grew again, the surface of the hyphae was subjected to a mechanical stress such as rubbing with, for example, a platinum loop or a brush; subsequently, the medium was left under irradiation with black light for four days or longer, subsequently left in a room-temperature environment for two weeks or longer, to promote sporulation again. To the resultant burdock root powder agar medium having cultured Pseudocercospora fuligena, several milliliters of sterile pure water was dropped, and the surface of the hyphae was rubbed with, for example, a platinum loop or a brush, to obtain a disintegrated hypha-spore mixed suspension.
(§3) The above-described container having, at the bottom surface, the artificial cell wall including the polyethylene terephthalate film (substrate) having, on its back surface, the cellulose membrane was placed on a culture medium container (culture-solution storage), to provide a device for detecting a tomato pathogenic fungus. […]
as §2

[3] = tested on: Botrytis cinerea; conditions: 25° C., 72 hours
Protocol: Botrytis cinerea, which is one of tomato pathogens and is a pathogenic fungus that causes tomato gray mold, was inoculated onto a potato dextrose agar medium (Difco™ Potato Dextrose Agar). Subsequently, the medium was left static at a temperature of 25° C. for a week. The Botrytis cinerea was given by Associate Professor Shimizu, Faculty of Applied Biological Sciences, Gifu University. Subsequently, the potato dextrose agar medium having cultured Botrytis cinerea with sufficient hyphal growth was left under irradiation with black light for four days or longer, and subsequently left in a room-temperature environment for two weeks or longer, to promote sporulation. To the resultant potato dextrose agar medium having cultured Botrytis cinerea, several milliliters of sterile pure water was dropped, and the surface of the hyphae was rubbed with, for example, a platinum loop or a brush, to obtain a disintegrated hypha-spore mixed suspension.
as §1, with “Bottom).” for “Bottom). Between the culture medium container and the artificial-cell-wall-formed container, 600 μL of a liquid culture medium (culture solution) was charged so as to be in contact with the back surface of the artificial-cell-wall-formed container.”
as §2

[4] = tested on: Trichoderma asperellum
Text: (§4) Biscogniauxia maritima, Penicillium olsonii, Phoma multirostrata, and Trichoderma asperellum, which are not tomato pathogens but were present on tomato leaves, were sampled from the tomato leaves, isolated, and then inoculated onto a potato dextrose agar medium. The tomato plants serving as the isolation sources were sampled at a plurality of sites. The isolation method was as follows: into a clean resin container or resin bag, several tomato leaves sampled were placed together with a fungus collection solution composed of physiological saline containing 0.1% surfactant Tween 80 (SIGMA-ALDRICH), and stirred for 1 minute to transfer the fungi adhering to the leaves to the fungus collection solution; this fungus collection solution was diluted, and applied to a potato dextrose agar medium containing 100 mg/L of streptomycin sulfate (Wako) by the spread plate culture technique; subsequently, the medium was incubated at 25° C. for several days and, from the produced fungus colonies, the isolation was performed. We requested Tama Laboratory, (general incorporated association) Japan Food Research Laboratories to perform identification. The above-described Biscogniauxia maritima, Penicillium olsonii, Phoma multirostrata, and Trichoderma asperellum isolated and then inoculated onto the potato dextrose agar medium were left static at a temperature of 25° C. for a week. Subsequently, to the potato dextrose agar medium on which the four species of fungi were cultured with sufficient hyphal growth or sufficient sporulation, several milliliters of sterile pure water was dropped; the surface of the hyphae was rubbed with, for example, a platinum loop or a brush, to obtain a disintegrated hypha-spore mixed suspension.
as §3

[5] = tested on: Penicillium olsonii; conditions: Comparative Example 1, fludioxonil 133 mg/L, 25° C., 72 hours
Text: as §4, §3

[6] = tested on: Phoma multirostrata; conditions: Comparative Example 1, fludioxonil 133 mg/L, 25° C., 72 hours
Text: as §4, §3

[7] = tested on: Biscogniauxia maritima; conditions: Comparative Example 1, fludioxonil 133 mg/L, 25° C., 72 hours
Text: as §4, §3

[8] = Comparative Example 1, fludioxonil 133 mg/L
[9] = Example 1, fludioxonil 0.5 mg/L
[10] = Example 2, fludioxonil 1.3 mg/L

Structure (SMILES): N#Cc1c[nH]cc1-c1cccc2c1OC(F)(F)O2 [fludioxonil]
- hyphae penetrating the artificial cell wall [1, 8]: not observed
- hyphae penetrating the artificial cell wall [1, 9]: had hyphae penetrating the artificial cell wall
- hyphae penetrating the artificial cell wall [1, 10]: had hyphae penetrating the artificial cell wall
- hyphae penetrating the artificial cell wall [2, 8]: not observed
- hyphae penetrating the artificial cell wall [2, 9]: had hyphae penetrating the artificial cell wall
- hyphae penetrating the artificial cell wall [2, 10]: had hyphae penetrating the artificial cell wall
- hyphae penetrating the artificial cell wall [3, 8]: not observed
- hyphae penetrating the artificial cell wall [3, 9]: had hyphae penetrating the artificial cell wall
- hyphae penetrating the artificial cell wall [3, 10]: had hyphae penetrating the artificial cell wall
- hyphae penetrating the artificial cell wall ([4]; Comparative Example 1, fludioxonil 133 mg/L, 25° C., 72 hours): not observed
- effect of excluding Trichoderma asperellum (number of hyphae penetrating the artificial cell walls) ([4]; Comparative Example 2, fludioxonil 0.1 mg/L (1/1000 of the concentration that provides the agricultural chemical effect)): not observed
- growth of Trichoderma asperellum (number of hyphae penetrating the artificial cell walls) ([4]; Comparative Example 2, fludioxonil 0.5 mg/L (1/250 of the concentration that provides the agricultural chemical effect)): inhibited
- hyphae penetrating the artificial cell wall [5]: not observed
- hyphae penetrating the artificial cell wall [6]: not observed
- hyphae penetrating the artificial cell wall [7]: not observed
